Where “and” joins values, the source holds several entries; their conditions need not be identical. Equal entries are not always repeated. Entries after “also recorded” stand apart in the source; their conditions may differ.

For one series, the system named is tyrosinase. The series is described as follows: Tyrosinase inhibition test. It is filed as biochemical. Here is the method: The tyrosinase inhibition test was performed at concentrations of 31.25 to 500 µM.
Figure 1 Tyrosinase and lipoxygenase activities of the isolated diterpenes from Copaifera sp. […] 1. 3-hydroxy-copalic acid, 2. kaurenoic acid, 3. 3-acetoxy-copalic acid, 4. kolavic acid15-methyl ester, 5. copalic acid, and 6. hardwickiic acid. Each value is the mean ± S.E. of three independent experiments. Statistical analysis was performed using Holm-Sidak multiple comparisons. * p < 0.05 compared with the negative control.

Another series relates to AGP01 (gastric). Nature of the series: Alamar Blue assay, tumoral cells AGP01. It is filed as cell-based. As to conditions: 72 h, 20 µmol/L. The procedure:
(§1) We also investigated possible cytotoxic effects on tumor cell lines (Table 1). To characterize this activity, the compounds were tested in different tumor cell lines, among which were AGP-01 (gastric), HCT116 (colorectal), MCF07 (breast cancer), NIHOVCAR (ovary), SKAMELL-4 (melanoma), and SF-295 (human glioblastoma), each at a concentration of 20 µM.
(§2) Cytotoxicity assay. The cytotoxicity of diterpene compounds to the murine macrophage cell line J774 was determined by the Alamar Blue method as described by Nakayama et al.. Briefly, adherent cells (5 × 10^3 cells/well) were grown in 96-well tissue culture plates and exposed to substances (2.5 to 10 µg/mL) for 24, 48 and 72 h. After incubation, the Alamar Blue solution (10 μL of 0.4% Alamar Blue (resazurin) in PBS) was added and the cells were incubated for 3 h at 37 °C. Fluorescence was measured (excitation at 545 nm and emission at 595 nm) and expressed as a percentage of the cells in the control after background fluorescence was subtracted. As a positive control of cell death, doxorubicin (5 µg/mL) was used. The assays were performed in triplicate. For the assays with tumoral cells, an Alamar Blue assay was performed using the following cell lines: AGP01—gastric; HCT116—colorectal; MCF07—breast cancer; NIHOVCAR—ovary; SKAMELL4—melanoma; SF295—human glioblastoma, which were seeded in 96-well plates (0.5 × 10^4 cells per well) and incubated in a CO2 atmosphere at 5% and 37 °C. After 24 h, diterpenes at 20 µM were added to each well and incubated for 72 h. Doxorubicin (10 μM) was used as a positive control and DMSO (0.1%) as a negative control. Before the end of the incubation, 10 µL of Alamar Blue (0.02%) was added to each well. The fluorescent signal was monitored using a multiplate reader using a 530–560 nm excitation wavelength and 590 nm emission wavelength. The fluorescent signal generated from the assay was proportional to the number of live cells in the sample, according to the manufacturer.

The test system of a further series is HCT-116 (colorectal). The series is described as follows: Alamar Blue assay, tumoral cells HCT-116. Format: cell-based. As to conditions: 72 h, 20 µmol/L. Here is the method: as §1, §2
The next series relates to NIHOVCAR (ovary). The series is described as follows: Alamar Blue assay, tumoral cells NIHOVCAR
Format: cell-based. Particulars: 72 h, 20 µmol/L. The procedure:
as §1, §2

Another series has as its system IL-10 production. Nature of the series: IL-10 production in LPS-stimulated J774 cells (CBA). Format: cell-based, murine. Here is the method:
(§3) Figure 2 Effect of the isolated diterpenic acids on nitric oxide (NO^•) and cytokine production in lipopolysaccharide-stimulated J774 cells. (A) TNF-α, (B) IL-6 and (C) IL-10 and (D) NO^•. Production of NO^• was assayed in culture supernatants of macrophages stimulated with LPS (1 µg/mL) for 24 h in the presence of the four compounds (25 µg/mL to cytokines and 50 µg/mL to NO^•). The nitrite and cytokines values are the mean ± S.D. from three independent experiments. Indomethacin was used as a standard. Statistical analysis was performed using the Holm-Sidak multiple comparison. * p < 0.05 when compared to control stimulated with LPS. (1) 3-hydroxy-copalic acid, (2) kaurenoic acid, (3) 3-acetoxy-copalic acid, (4) kolavic acid 15-methyl ester, (5) copalic acid and (6) hardwickiic acid.
Macrophage cells (1 × 10^6 cells/mL) were incubated with different concentrations of diterpene compounds (12.5 to 50 μM), and then stimulated with 1 μg/mL of LPS. The culture supernatants were collected after 24 h of LPS stimulation. The levels of cytokines in the culture media were measured by flow cytometry (BD Cytometric Bead Array—CBA—Mouse Inflammation kit) according to the manufacturer’s instructions.

The subject of a further series is SKMELL28 (melanoma). Nature of the series: Alamar Blue assay, tumoral cells SKMELL28. Format: cell-based. As to conditions: 72 h, 20 µmol/L. Here is the method:
as §1, §2

The next series deals with IL-6 production. Nature of the series: IL-6 production in LPS-stimulated J774 cells (CBA). It is filed as cell-based, murine. As to conditions: for inhibition of IL-6 production (words): LPS-stimulated J774; for inhibition at 25 µM: Mus musculus, J774, 25 µM (abstract). Here is the method:
as §3, with “Production of NO^• was assayed in culture supernatants of macrophages stimulated with LPS (1 µg/mL) for 24 h in the presence of the four compounds (25 µg/mL to cytokines and 50 µg/mL to NO^•).” left out
[…] The culture supernatants were collected after 24 h of LPS stimulation. The levels of cytokines in the culture media were measured by flow cytometry (BD Cytometric Bead Array—CBA—Mouse Inflammation kit) according to the manufacturer’s instructions.

For another series, the system named is MCF7 (breast cancer). Nature of the series: Alamar Blue assay, tumoral cells MCF7. It is filed as cell-based. Particulars: 72 h, 20 µmol/L. The procedure: as §1, §2
Series [1] relates to SF295 (human glioblastoma). Nature of the series: Alamar Blue assay, tumoral cells SF295. It is filed as cell-based. Particulars: 72 h, 20 µmol/L. Here is the method:
as §1, §2

A further series has as its system LOX. The arrangement: method as in doi:10.1007/s00044-013-0559-7. Particulars: read-out: LOX inhibition IC50; cited from earlier work.
Series [2] has as its system nitric oxide production in J774 macrophages stimulated with LPS. Nature of the series: NO production assay (Griess) in LPS-stimulated J774 cells. Format: cell-based, murine. As to conditions: Mus musculus; for IC50: J774, LPS 1 µg/mL, 24 h, read-out: inhibition of NO production IC50. The procedure:
Our study evaluated the effects of diterpene compounds on the production of nitric oxide in the murine macrophage cell line J774 stimulated with LPS (Figure 2D). NO^• levels were measured by the Greiss method. […] Similar results for kaurenoic acid were observed by Choi et al. […] Figure 2 Effect of the isolated diterpenic acids on nitric oxide (NO^•) and cytokine production in lipopolysaccharide-stimulated J774 cells. (A) TNF-α, (B) IL-6 and (C) IL-10 and (D) NO^•. […] The nitrite and cytokines values are the mean ± S.D. from three independent experiments. Indomethacin was used as a standard. Statistical analysis was performed using the Holm-Sidak multiple comparison. * p < 0.05 when compared to control stimulated with LPS. (1) 3-hydroxy-copalic acid, (2) kaurenoic acid, (3) 3-acetoxy-copalic acid, (4) kolavic acid 15-methyl ester, (5) copalic acid and (6) […]. NO^• production by J774 cells was assayed by measuring the accumulation of nitrite in the culture medium using a Griess reaction. Briefly, after incubation of the cells (1 × 10^6 cells/mL) with diterpene compounds in different concentrations from 6.25 to 100 μM, cells were incubated for 24 h with LPS (1 μg/mL), at 37 °C in a 5% CO2 incubator. Nitric oxide was measured as NO2 in culture supernatant by reaction with Griess reagent. Absorbance of the reaction product was determined at 560 nm using a microplate reader (DTX 800, Beckman). Sodium nitrite was used as a standard to calculate nitrite concentrations.

A further series has as its system erythrocyte. Nature of the series: Hemolysis test.
The mark [3] stands for this setting: LPS-stimulated J774, 12.5 to 50 µM.

Description for erythrocyte: The assay for the characterization of hemolytic activity aimed to evaluate the potential of diterpenes on lysis of the cell membrane.
Blood was collected in heparinized-tubes from Wistar rats, and washed three times with saline solution (NaCl 0.85% + CaCl2 10 mM) by centrifugation at 700 g for 10 min. The pellet of erythrocyte was re-suspended in saline solution for preparation of erythrocyte suspension −2% (SE). A total of 100 µL of the samples of diluted diterpenes was added to 96-well microplates in different concentrations (6.25 to 800 µM); 100 µL of SE was then added; and the samples were incubated for 60 min at 37 °C under constant agitation. The release of hemoglobin was determined after centrifugation (700 g for 10 min) by photometric analysis of the supernatant at 540 nm. Complete hemolysis was achieved using 0.2% Triton X-100 yielding the 100% control value.

`O=c1cc(CO)occ1O` [Kojic acid, reference compound]: the “tyrosinase inhibition (activity of standard)” value in the series on tyrosinase (700 µM) came to 73.5%.
As for `C=C1CCC2C(C)(C)[C@H](OC(C)=O)CC[C@@]2(C)[C@@H]1CCC(C)=CC(=O)O` (stereo in doubt) [3-acetoxy-copalic acid, 3-Acetoxy-copalic acid], the “Viability inhibition (%) AGP01” value in the series on AGP01 (gastric) stood at 13.1 ± 5.3%. For the same compound, the “Viability inhibition (%) HCT-116” value in the series with HCT-116 (colorectal) was at most 0.01%. Further, in the series on NIHOVCAR (ovary), the “Viability inhibition (%) NIHOVCAR” value is listed as 2.0 ± 3.5%. For the same compound, the “IL-10 production (words)” value in the series with IL-10 production (12.5 µM and 25 µM) is on record as “induced the production of IL-10”; in the series on IL-10 production (50 µM) it was “this induction decreased”; with IL-10 production (setting [3]), “increased IL-10 production; also recorded: induced IL-10 production”. Further, in the series with SKMELL28 (melanoma), the “Viability inhibition (%) SKMELL28” value is recorded as at most 0.01%. In addition, the “inhibition of IL-6 production (words)” value in the series on IL-6 production is recorded as “inhibited the production of IL-6”. The compound also had an inhibition at 25 µM with IL-6 production of 23.8%. Besides, the “Viability inhibition (%) MCF7” value in the series with MCF7 (breast cancer) is at most 0.01%. Besides, the “Viability inhibition (%) SF295” value in [1] is on record as 17.7 ± 0.9%; in series [1] (listed as 3-AcO-copalic), “around 20%”.
For the compound `COc1c(C(C)C)cc2c(c1OC)[C@@]13CCC(=O)C(C)(C)[C@@H]1[C@H](OC3=O)C2=O` [taxusabietane C], the IC50 with LOX was 69 ± 0.31 µM.
Consider `COc1ccc2c(c1)c(CC(=O)O)c(C)n2C(=O)c1ccc(Cl)cc1` [indomethacin, reference compound], for which the IC50 in [2] is 32 ± 3.5 µM.
Consider `C=C1CCC2C(C)(C)[C@H](O)CC[C@@]2(C)[C@@H]1CC/C(C)=C\C(=O)O` (stereo partly drawn) [3-hydroxy-copalic acid, 3-Hydroxy-copalic acid], for which the “Viability inhibition (%) AGP01” value in the series with AGP01 (gastric) worked out at 8.5 ± 13.1%. Besides, the “Viability inhibition (%) HCT-116” value in the series with HCT-116 (colorectal) is 4.7 ± 5.6%. Also, in the series on NIHOVCAR (ovary), the “Viability inhibition (%) NIHOVCAR” value is recorded as at most 0.01%. Also, the “IL-10 production (words)” value in the series on IL-10 production (setting [3]) is “promoted the induction of IL-10 independent of the dose tested”; with IL-10 production (LPS-stimulated J774, 12.5 to 50 µM, listed as 3-hydroxy-copalic), “induced IL-10 production; also recorded: induced production of interleukin-10”. The “Viability inhibition (%) SKMELL28” value with SKMELL28 (melanoma) is reported as at most 0.01%. Moreover, in the series with tyrosinase (250 µM), the tyrosinase inhibition is 63.9% and 64% ± 1.5%. The “tyrosinase activity relative to standard kojic acid” value with tyrosinase (63.9% at 250 µM vs 73.5% at 700 µM) was “three times more active than the standard”. The “tyrosinase inhibitory activity” value with tyrosinase (conclusions) is recorded as “higher inhibitory activity”. The compound also registered an IC50 at tyrosinase (tested at 31.25 to 500 µM) of 256 µM. Further, in the series on MCF7 (breast cancer), the “Viability inhibition (%) MCF7” value is at most 0.01%. Also, the “Viability inhibition (%) SF295” value in [1] is reported as 20.5 ± 5.0%; in series [1] (listed as 3-HO-copalic) it was “around 20%”.
As for `COc1c(C(C)C)cc2c(c1O)C=C1C=CC(=O)C(C)(C)C1CC2=O` (stereo not drawn) [taxamairin F], the IC50 with LOX is 73 ± 0.14 µM.
For the compound `C=C1CC[C@@H]2C(C)(C)CCC[C@@]2(C)[C@@H]1CC/C(C)=C/C(=O)O` [copalic acid, Copalic acid], the “Viability inhibition (%) HCT-116” value with HCT-116 (colorectal) is listed as at most 0.01%. For the same compound, in the series on NIHOVCAR (ovary), the “Viability inhibition (%) NIHOVCAR” value is recorded as at most 0.01%. In the series with IL-10 production (setting [3]), the “IL-10 production (words)” value was “increased IL-10 production; also recorded: induced IL-10 production; also recorded: induced production of interleukin-10”. Also, the “Viability inhibition (%) SKMELL28” value with SKMELL28 (melanoma) is on record as at most 0.01%. Moreover, 100 µM produced 98.5% inhibition in series [2] (J774, 100 µM, LPS-activated macrophages). Also, in series [2], the IC50 was found to be 57.4 ± 0.2 µM. The “inhibition of IL-6 production (words)” value in the series on IL-6 production is recorded as “inhibited the production of IL-6”. In the series on IL-6 production, this compound returned an inhibition at 25 µM of 4.2%. For the same compound, the “Viability inhibition (%) MCF7” value in the series with MCF7 (breast cancer) is given as at most 0.01%. Besides, the “Viability inhibition (%) SF295” value in [1] was at most 0.01%. Also, the hemolytic activity in the series on erythrocyte (100 µM (abstract)) and in the series on erythrocyte (100 mM (so in the source)) was 38.4% throughout.
Regarding `C[C@@H]1CC[C@@]2(C)C(C(=O)O)=CCC[C@@H]2[C@@]1(C)CCc1ccoc1` [hardwickiic acid, Hardwickiic acid], the “Viability inhibition (%) HCT-116” value in the series with HCT-116 (colorectal) is at most 0.01%. For the same compound, the “Viability inhibition (%) NIHOVCAR” value in the series on NIHOVCAR (ovary) is on record as at most 0.01%. Moreover, the “IL-10 production (words)” value with IL-10 production (setting [3]) was “did not induce the production of IL-10”. In addition, the “Viability inhibition (%) SKMELL28” value in the series on SKMELL28 (melanoma) is on record as at most 0.01%. Further, the IC50 in series [2] came out at 67.4 ± 1.3 µM. For the same compound, the “Viability inhibition (%) MCF7” value in the series on MCF7 (breast cancer) is given as at most 0.01%. In series [1], the “Viability inhibition (%) SF295” value is at most 0.01%.
